Earlier results, collected in patent publication US20150017236A1, “PHARMACEUTICAL COMPOSITIONS OF THYROID HORMONE” (priority 2013, published 2015).

Conditions: tablet formulation of levothyroxine sodium; storage

decomposition of levothyroxine: approximately 1 percent per month
Structure (SMILES): N[C@@H](Cc1cc(I)c(Oc2cc(I)c(O)c(I)c2)c(I)c1)C(=O)O [levothyroxine sodium, sodium (S)-2-amino-3-[4-(4-hydroxy-3,5-diiodphenoxy)-3,5-diiodophenyl]propionate]
